# Paper PMC10425210 (The Journal of Clinical Investigation, 2023)
# Where “and” joins values, the source holds several entries; their conditions need not be identical. Equal values may be shown once. Entries after “also recorded” stand apart in the source; their conditions may differ. Read-outs that look alike come from different tables or passages of the source.
# Tests used:
# SHIV-SF162P3 = type: in vivo, rhesus macaques
# HIV-1 = tested on: HIV-1; design: method as in ref 11 = [11]; PMID 32612233; doi:10.1038/s41586-020-2443-1; 11 Link JO et al Clinical targeting of HIV capsid protein with a long-acting small molecule Nature 2020 584 7822 614 618 10.1038/s41586-020-2443-1 32612233 PMC8188729; details: cited from earlier work
structure (smiles),measurement,setting,value
"CC(C)(C#Cc1ccc(-c2ccc(Cl)c3c(NS(C)(=O)=O)nn(CC(F)(F)F)c23)c([C@H](Cc2cc(F)cc(F)c2)NC(=O)Cn2nc(C(F)(F)F)c3c2C(F)(F)[C@@H]2C[C@H]32)n1)S(C)(=O)=O [LEN, Lenacapavir]",Intact SHIV DNA / 10M PBMC,"SHIV-SF162P3; animal V430, 50 mg/kg, Wk 2 post challenge",1 / 10M PBMC
same,Intact SHIV DNA / 10M PBMC,"SHIV-SF162P3; animal V430, 50 mg/kg, Wk 10 post challenge",1 / 10M PBMC
same,Plasma SHIV RNA,"SHIV-SF162P3; animal V430, 50 mg/kg, week 0 post challenge",62 copies per mL
same,Plasma SHIV RNA,"SHIV-SF162P3; animal V430, 50 mg/kg, week 1 post challenge",62 copies per mL
same,Plasma SHIV RNA,"SHIV-SF162P3; animal V430, 50 mg/kg, week 2 post challenge",62 copies per mL
same,Plasma SHIV RNA,"SHIV-SF162P3; animal V430, 50 mg/kg, week 3 post challenge",62 copies per mL
same,Plasma SHIV RNA,"SHIV-SF162P3; animal V430, 50 mg/kg, week 4 post challenge",62 copies per mL
same,Plasma SHIV RNA,"SHIV-SF162P3; animal V430, 50 mg/kg, week 5 post challenge",62 copies per mL
same,Plasma SHIV RNA,"SHIV-SF162P3; animal V430, 50 mg/kg, week 6 post challenge",62 copies per mL
same,Plasma SHIV RNA,"SHIV-SF162P3; animal V430, 50 mg/kg, week 7 post challenge",62 copies per mL
same,Plasma SHIV RNA,"SHIV-SF162P3; animal V430, 50 mg/kg, week 8 post challenge",62 copies per mL
same,Plasma SHIV RNA,"SHIV-SF162P3; animal V430, 50 mg/kg, week 9 post challenge",62 copies per mL
same,Plasma SHIV RNA,"SHIV-SF162P3; animal V430, 50 mg/kg, week 10 post challenge",62 copies per mL
same,Plasma SHIV RNA,"SHIV-SF162P3; animal V430, 50 mg/kg, week 11 post challenge",62 copies per mL
same,Plasma SHIV RNA,"SHIV-SF162P3; animal V430, 50 mg/kg, week 12 post challenge",62 copies per mL
same,Plasma SHIV RNA,"SHIV-SF162P3; animal V430, 50 mg/kg, week 13 post challenge",62 copies per mL
same,Plasma SHIV RNA,"SHIV-SF162P3; animal V430, 50 mg/kg, week 14 post challenge",62 copies per mL
same,Plasma SHIV RNA,"SHIV-SF162P3; animal V430, 50 mg/kg, week 15 post challenge",62 copies per mL
same,Plasma SHIV RNA,"SHIV-SF162P3; animal V430, 50 mg/kg, week 16 post challenge",62 copies per mL
same,Plasma SHIV RNA,"SHIV-SF162P3; animal V430, 50 mg/kg, week 17 post challenge",62 copies per mL
same,Plasma SHIV RNA,"SHIV-SF162P3; animal V430, 50 mg/kg, week 18 post challenge",62 copies per mL
same,Challenge outcome,"SHIV-SF162P3; animal V435, 75 mg/kg",Infected
same,Intact SHIV DNA / 10M PBMC,"SHIV-SF162P3; animal V435, 75 mg/kg, Wk 2 post challenge",1890.13 / 10M PBMC
same,Plasma SHIV RNA,"SHIV-SF162P3; animal V435, 75 mg/kg, week 0 post challenge",62 copies per mL
same,Plasma SHIV RNA,"SHIV-SF162P3; animal V435, 75 mg/kg, week 1 post challenge",62 copies per mL
same,Plasma SHIV RNA,"SHIV-SF162P3; animal V435, 75 mg/kg, week 2 post challenge",756278 copies per mL
same,Plasma SHIV RNA,"SHIV-SF162P3; animal V435, 75 mg/kg, week 6 post challenge",242042 copies per mL
same,Plasma SHIV RNA,"SHIV-SF162P3; animal V435, 75 mg/kg, week 7 post challenge",286179 copies per mL
same,Plasma SHIV RNA,"SHIV-SF162P3; animal V435, 75 mg/kg, week 9 post challenge",32896 copies per mL
same,Plasma SHIV RNA,"SHIV-SF162P3; animal V435, 75 mg/kg, week 10 post challenge",40477 copies per mL
same,Plasma SHIV RNA,"SHIV-SF162P3; animal V435, 75 mg/kg, week 11 post challenge",31394 copies per mL
same,Plasma SHIV RNA,"SHIV-SF162P3; animal V435, 75 mg/kg, week 12 post challenge",7502 copies per mL
same,Plasma SHIV RNA,"SHIV-SF162P3; animal V435, 75 mg/kg, week 13 post challenge",16622 copies per mL
same,Plasma SHIV RNA,"SHIV-SF162P3; animal V435, 75 mg/kg, week 14 post challenge",6647 copies per mL
same,Plasma SHIV RNA,"SHIV-SF162P3; animal V435, 75 mg/kg, week 15 post challenge",46117 copies per mL
same,Plasma SHIV RNA,"SHIV-SF162P3; animal V435, 75 mg/kg, week 16 post challenge",21357 copies per mL
same,Plasma SHIV RNA,"SHIV-SF162P3; animal V435, 75 mg/kg, week 17 post challenge",55828 copies per mL
same,Plasma SHIV RNA,"SHIV-SF162P3; animal V435, 75 mg/kg, week 18 post challenge",34073 copies per mL
same,Plasma SHIV RNA,"SHIV-SF162P3; animal V435, 75 mg/kg, week 19 post challenge",913 copies per mL
same,Plasma SHIV RNA,"SHIV-SF162P3; animal V435, 75 mg/kg, week 20 post challenge",62 copies per mL
same,Challenge outcome,"SHIV-SF162P3; animal V470, 50 mg/kg",Not infected
same,Intact SHIV DNA / 10M PBMC,"SHIV-SF162P3; animal V470, 50 mg/kg, Wk 2 post challenge",1 / 10M PBMC
same,Intact SHIV DNA / 10M PBMC,"SHIV-SF162P3; animal V470, 50 mg/kg, Wk 10 post challenge",1 / 10M PBMC
same,Plasma SHIV RNA,"SHIV-SF162P3; animal V470, 50 mg/kg, week 0 post challenge",62 copies per mL
same,Plasma SHIV RNA,"SHIV-SF162P3; animal V470, 50 mg/kg, week 1 post challenge",62 copies per mL
same,Plasma SHIV RNA,"SHIV-SF162P3; animal V470, 50 mg/kg, week 2 post challenge",62 copies per mL
same,Plasma SHIV RNA,"SHIV-SF162P3; animal V470, 50 mg/kg, week 3 post challenge",62 copies per mL
same,Plasma SHIV RNA,"SHIV-SF162P3; animal V470, 50 mg/kg, week 4 post challenge",62 copies per mL
same,Plasma SHIV RNA,"SHIV-SF162P3; animal V470, 50 mg/kg, week 5 post challenge",62 copies per mL
same,Plasma SHIV RNA,"SHIV-SF162P3; animal V470, 50 mg/kg, week 6 post challenge",62 copies per mL
same,Plasma SHIV RNA,"SHIV-SF162P3; animal V470, 50 mg/kg, week 7 post challenge",62 copies per mL
same,Plasma SHIV RNA,"SHIV-SF162P3; animal V470, 50 mg/kg, week 8 post challenge",62 copies per mL
same,Plasma SHIV RNA,"SHIV-SF162P3; animal V470, 50 mg/kg, week 9 post challenge",62 copies per mL
same,Plasma SHIV RNA,"SHIV-SF162P3; animal V470, 50 mg/kg, week 10 post challenge",62 copies per mL
same,Plasma SHIV RNA,"SHIV-SF162P3; animal V470, 50 mg/kg, week 11 post challenge",62 copies per mL
same,Plasma SHIV RNA,"SHIV-SF162P3; animal V470, 50 mg/kg, week 12 post challenge",62 copies per mL
same,Plasma SHIV RNA,"SHIV-SF162P3; animal V470, 50 mg/kg, week 13 post challenge",62 copies per mL
same,Plasma SHIV RNA,"SHIV-SF162P3; animal V470, 50 mg/kg, week 14 post challenge",62 copies per mL
same,Plasma SHIV RNA,"SHIV-SF162P3; animal V470, 50 mg/kg, week 15 post challenge",62 copies per mL
same,Plasma SHIV RNA,"SHIV-SF162P3; animal V470, 50 mg/kg, week 16 post challenge",62 copies per mL
same,Plasma SHIV RNA,"SHIV-SF162P3; animal V470, 50 mg/kg, week 17 post challenge",62 copies per mL
same,Plasma SHIV RNA,"SHIV-SF162P3; animal V470, 50 mg/kg, week 18 post challenge",62 copies per mL
same,reduction of the rate of infection per exposure,SHIV-SF162P3; compared with the untreated group,more than 2 fold
same,intact proviral DNA assay (IPDA) signal,"SHIV-SF162P3; eight SHIV-negative animals, weeks 2 and 10",No signal was detected
same,Peak Plasma SHIV RNA,SHIV-SF162P3; individual LEN-dosed infected animals,299412 copies/mL and 1140343 copies/mL and 35193943 copies/mL
same,animals viremic after challenge,"SHIV-SF162P3; of 11 LEN-dosed animals, 100 TCID50, 2 weeks after challenge",3 animals
same,anti-capsid (p27) antibody ELISA,"SHIV-SF162P3; other 8 animals, through week 10 after challenge",no antibodies were detectable
same,LEN-dosed animals with confirmed uninfected status,"SHIV-SF162P3; plasma PCR, serology, IPDA",8 of 11
same,Challenge outcome,"SHIV-SF162P3; rhesus monkey, in vivo",Not infected
same,Intact SHIV DNA / 10M PBMC,"SHIV-SF162P3; rhesus monkey, in vivo",1 / 10M PBMC
same,Plasma SHIV RNA,"SHIV-SF162P3; rhesus monkey, in vivo",62 copies per mL
same,"resistance emergence, capsid sequence of plasma virus","SHIV-SF162P3; rhesus monkey, in vivo",no emerging mutations in capsid; also recorded: No resistance was selected
same,"peak viremia, LEN-dosed infected vs untreated animals",SHIV-SF162P3; same viral inoculum,no significant differences
same,EC50,"HIV-1; 23 HIV-1 clinical isolates, mitogen-activated human PBMCs, 7-day assay",50 ± 30 pM
same,EC95,"HIV-1; 23 HIV-1 isolates, human PBMCs",120 pM and 120 ± 70 pM
